In patent US9109048B2, “Inhibition of tumor growth” (priority 1998, dated 2015):
One block for each molecule: values may come before it. Ends that are not written are not given here. Peptide text beside a SMILES is read from it. * marks the point of attachment. Acm = CC(=O)NC*

Legend:
Type in all cases: cell-based
[1] = test system: human red blood cells; experiment: Hemolytic assay; parameters: % Hemolysis: dose or concentration left out as unconfirmed; conditions: for EC50 / EC 50 (toxicity, hemolysis): red cells of human
Method: The hemolytic activities of the peptides were determined using fresh human red blood cells. 8 ml blood was taken from a healthy person. 4 ml blood was transferred to a polycarbonate tube containing heparin to a final concentration of 10 U/ml, and the remaining 4 ml blood was transferred to a glass tube containing EDTA with final concentration of 15% EDTA. The erythrocytes were isolated from heparin-treated blood by centrifugation in 1500 rpm for 10 min and washed three times with phosphate-buffered saline (PBS) to remove plasma and buffy coat. The cell pellet was resuspended in PBS to make the final volume of 4 ml. The peptide was diluted to a concentration of 2 mg/ml and 0.1 mg/ml. The peptide was further diluted to the concentrations as stated in Table 1. For each tube PBS was added first, then RBCs and peptide solutions. The hematocrit in the blood treated with EDTA was determined after 30 min with Sysmex K-1000, and the resuspended RBCs were diluted into 10% hematocrit. RBCs in PBS (1%) with and without peptides (Table 18) were incubated in a shaker at 37° for 1 hour and then centrifuged at 4000 rpm for 5 min. The supernatant were carefully transferred to new polycarbonate tubes and the absorbance of the supernatant was measured at 540 nm. Baseline hemolysis was hemoglobin released in the presence of PBS, and 100% hemolysis was hemoglobin released in the presence of 0.1% Triton X-100.

[2] = test system: Escherichia coli ATCC 25922; experiment: MIC (minimum inhibitory concentration) test, microdilution; conditions: for Mic E-coli: Table 19
Method: (§1) The bacterial strains used were: Escherichia coli ATCC 25922 and Staphylococcus aureus ATCC 25923. All strains were stored at −70° C. The bacteria were grown in 2% Bacto Peptone water (Difco 1807-17-4). All tests were performed with bacteria in mid-logarithmic growth phase. Determination of the minimum inhibitory concentration (MIC) of the peptides for bacterial strains were performed in 1% Bacto Peptone water. A standard microdilution technique with an inoculum of 2×10^6 CFU/ml was used. All assays were performed in triplets. Since the peptides are positively charged and therefore could adhere to the plastic wells, we controlled the actual concentration of the peptides in the solution by HPLC. There was no difference between the concentration of the peptides before or after adding the solution to the plastic wells.

[3] = test system: Staphylococcus aureus ATCC 25923; experiment: as above
Method: as §1

Minimum inhibitory concentration (MIC) E. coli ATCC 25922 ([2]; Table 1, value in parentheses): 120 µM
Minimum inhibitory concentration (MIC) S. aureus ATCC 25923 ([3]; Table 1, value in parentheses): > 150 µM
Molecule: CSCC[C@H](NC(=O)[C@H](CCCNC(=N)N)NC(=O)[C@H](Cc1c[nH]c2ccccc12)NC(=O)[C@H](CCC(N)=O)NC(=O)[C@H](Cc1c[nH]c2ccccc12)NC(=O)[C@H](CCCNC(=N)N)NC(=O)[C@H](CCCNC(=N)N)NC(=O)[C@@H](N)CSCNC(C)=O)C(=O)N[C@@H](CCCCN)C(=O)N[C@@H](CCCCN)C(=O)N[C@@H](CC(C)C)C(=O)NCC(=O)N[C@@H](C)C(=O)O [LFB 19-31] (H-C(Acm)RRWQWRMKKLGA-OH; N-terminus and C-terminus assumed)

MIC E. coli ([2]; ATCC 25922): 5 µg/mL
MIC S. aureus ([3]; ATCC 25923): 10 µg/mL
Molecule: GIGKFLKKARKWGRAWVRILKKG [Tosmag W12,16]

MIC E. coli ([2]; ATCC 25922): 10 µg/mL
MIC S. aureus ([3]; ATCC 25923): 5 µg/mL
Molecule: GIGKFLKKARKFGRAWVRILKKG [Tosmag W16]

MIC E. coli ([2]; ATCC 25922): 80 µg/mL
Minimum inhibitory concentration (MIC) E. coli ATCC 25922 ([2]; Table 1, value in parentheses): 43 µM
MIC S. aureus ([3]; ATCC 25923): 200 µg/mL
Minimum inhibitory concentration (MIC) S. aureus ATCC 25923 ([3]; Table 1, value in parentheses): 108 µM
Molecule: CSCC[C@H](NC(=O)[C@H](CCCNC(=N)N)NC(=O)[C@H](Cc1c[nH]c2ccccc12)NC(=O)[C@H](CCC(N)=O)NC(=O)[C@H](Cc1c[nH]c2ccccc12)NC(=O)[C@H](CCCNC(=N)N)NC(=O)[C@H](CCCNC(=N)N)NC(=O)[C@H](CSCNC(C)=O)NC(=O)[C@@H](N)CCCCN)C(=O)N[C@@H](CCCCN)C(=O)N[C@@H](CCCCN)C(=O)N[C@@H](CC(C)C)C(=O)NCC(=O)N[C@@H](C)C(=O)O [LFB 18-31] (H-KC(Acm)RRWQWRMKKLGA-OH; N-terminus and C-terminus assumed)

MIC E. coli ([2]; ATCC 25922): 60 µg/mL
Minimum inhibitory concentration (MIC) E. coli ATCC 25922 ([2]; Table 1, value in parentheses): 30 µM
MIC S. aureus ([3]; ATCC 25923): 100 µg/mL
Minimum inhibitory concentration (MIC) S. aureus ATCC 25923 ([3]; Table 1, value in parentheses): 50 µM
Molecule: CSCC[C@H](NC(=O)[C@H](CCCNC(=N)N)NC(=O)[C@H](Cc1c[nH]c2ccccc12)NC(=O)[C@H](CCC(N)=O)NC(=O)[C@H](Cc1c[nH]c2ccccc12)NC(=O)[C@H](CCCNC(=N)N)NC(=O)[C@H](CCCNC(=N)N)NC(=O)[C@H](CSCNC(C)=O)NC(=O)[C@H](CCCCN)NC(=O)[C@@H](N)CCCCN)C(=O)N[C@@H](CCCCN)C(=O)N[C@@H](CCCCN)C(=O)N[C@@H](CC(C)C)C(=O)NCC(=O)N[C@@H](C)C(=O)O [LFB K1] (H-KKC(Acm)RRWQWRMKKLGA-OH; N-terminus assumed)

MIC E. coli ([2]; ATCC 25922): 20 µg/mL
Minimum inhibitory concentration (MIC) E. coli ATCC 25922 ([2]; Table 1, value in parentheses): 10 µM
MIC S. aureus ([3]; ATCC 25923): 200 µg/mL
Minimum inhibitory concentration (MIC) S. aureus ATCC 25923 ([3]; Table 1, value in parentheses): 100 µM
Molecule: CSCC[C@H](NC(=O)[C@H](CCCNC(=N)N)NC(=O)[C@H](Cc1c[nH]c2ccccc12)NC(=O)[C@H](CCC(N)=O)NC(=O)[C@H](Cc1c[nH]c2ccccc12)NC(=O)[C@H](CCCNC(=N)N)NC(=O)[C@H](Cc1ccccc1)NC(=O)[C@H](CSCNC(C)=O)NC(=O)[C@H](CCCCN)NC(=O)[C@@H](N)Cc1ccccc1)C(=O)N[C@@H](CCCCN)C(=O)N[C@@H](CCCCN)C(=O)N[C@@H](CC(C)C)C(=O)NCC(=O)N[C@@H](C)C(=O)O [LFB F4] (H-FKC(Acm)FRWQWRMKKLGA-OH; N-terminus and C-terminus assumed)

MIC E. coli ([2]; ATCC 25922): 100 µg/mL
Minimum inhibitory concentration (MIC) E. coli ATCC 25922 ([2]; Table 1, value in parentheses): 62 µM
MIC S. aureus ([3]; ATCC 25923): 200 µg/mL
Minimum inhibitory concentration (MIC) S. aureus ATCC 25923 ([3]; Table 1, value in parentheses): 124 µM
Molecule: RRWQWRMKKLGA-OH [LFB 20-31]

Continued, molecule first:

Molecule: CSCC[C@@H](NC(=O)[C@@H](CCCCN)NC(=O)[C@@H](CCCCN)NC(=O)[C@@H](CC(C)C)NC(=O)CNC(=O)[C@@H](C)N)C(=O)N[C@H](CCCNC(=N)N)C(=O)N[C@H](Cc1c[nH]c2ccccc12)C(=O)N[C@H](CCC(N)=O)C(=O)N[C@H](Cc1c[nH]c2ccccc12)C(=O)N[C@H](CCCNC(=N)N)C(=O)N[C@H](CCCNC(=N)N)C(=O)N[C@H](CSCNC(C)=O)C(=O)N[C@H](CCCCN)C(=O)N[C@H](Cc1ccccc1)C(=O)O [Retro-Enantio LFB 17-31]
% Hemolysis [1]: 3.31%

Molecule: YRAWRWAWRWR-NH2 [LFM 17-27 A7R2,8,9W3,4,10Y1 NH2, TYR-ARG-ALA-TRP-ARG-TRP-ALA-TRP-ARG-TRP-ARG-CONH2]
MIC E. coli ([2]; ATCC 25922): 10 µg/mL
MIC S. aureus ([3]; ATCC 25923): 2.5 µg/mL

Molecule: PAIRKAFRWAWRMLKKAA [LFB 14-31A2,6,10,17F7I3K16L14R4]
Mic E-coli [2]: 2/4
Mic S. Aureus ([3]; Table 19): 2/4

Molecule: CSCC[C@@H](NC(=O)[C@@H](CCCNC(=N)N)NC(=O)[C@@H](Cc1c[nH]c2ccccc12)NC(=O)[C@@H](CCC(N)=O)NC(=O)[C@@H](Cc1c[nH]c2ccccc12)NC(=O)[C@@H](CCCNC(=N)N)NC(=O)[C@@H](CCCNC(=N)N)NC(=O)[C@@H](CSCNC(C)=O)NC(=O)[C@@H](CCCCN)NC(=O)[C@H](N)Cc1ccccc1)C(=O)N[C@H](CCCCN)C(=O)N[C@H](CCCCN)C(=O)N[C@H](CC(C)C)C(=O)NCC(=O)N[C@H](C)C(=O)O [Enantio LFB 17-31]
% Hemolysis [1]: 3.05%

Molecule: GIGKFWHWAKKFGKAFVGEIMNS [Mag 2 W 6,8]
MIC E. coli ([2]; ATCC 25922): >100 µg/mL
MIC S. aureus ([3]; ATCC 25923): >100 µg/mL

Molecule: PAWFKARRWAWRMLKKAA-OH [LFB 14-31 A2,6,10,17 K16L14]
EC50 [1]: > 440 µM
EC 50 (toxicity, hemolysis) [1]: >1000 µg/mL
MIC E. coli ([2]; ATCC 25922): 4.4 µM
MIC E. coli ([2]; Table 15): 10.0 µg/mL
MIC S. aureus ([3]; ATCC 25923): 4.4 µM
MIC S. aureus ([3]; Table 15): 10.0 µg/mL

Molecule: PAWRKAFRWAWRMKKLAA-OH [LFB 14-31 A2,6,10,17F7R4]
EC50 [1]: > 440 µM
EC 50 (toxicity, hemolysis) [1]: >1000 µg/mL
MIC E. coli ([2]; ATCC 25922): 4.4 µM
MIC E. coli ([2]; Table 8): 10 µg/mL
MIC E. coli ([2]; Table 15): 10.0 µg/mL

Molecule: CC[C@H](C)[C@H](NC(=O)[C@H](CO)NC(=O)[C@@H]1CCCN1C(=O)[C@H](C)NC(=O)CNC(=O)[C@H](CC(C)C)NC(=O)[C@H](CCCCN)NC(=O)[C@H](CCCNC(=N)N)NC(=O)[C@H](CCSC)NC(=O)[C@H](CCCNC(=N)N)NC(=O)[C@H](CCCNC(=N)N)NC(=O)[C@H](CCC(N)=O)NC(=O)[C@H](Cc1c[nH]c2ccccc12)NC(=O)[C@H](CCC(N)=O)NC(=O)[C@H](Cc1ccc(O)cc1)NC(=O)[C@H](CSCNC(C)=O)NC(=O)[C@H](CCCCN)NC(=O)[C@@H](N)CO)C(=O)N[C@H](C(=O)N[C@@H](CSCNC(C)=O)C(=O)N[C@H](C(=O)N[C@@H](CCCNC(=N)N)C(=O)N[C@@H](CCCNC(=N)N)C(=O)N[C@H](C(=O)N[C@@H](CO)C(=O)O)[C@@H](C)O)C(C)C)[C@@H](C)O [LFC (17-41)] (H-SKC(Acm)YQWQRRMRKLGAPSITC(Acm)VRRTS-OH)
Minimum inhibitory concentration (MIC) E. coli ATCC 25922 ([2]; ATCC 25922): 750 µg/mL
Minimum inhibitory concentration (MIC) S. aureus ATCC 25923 ([3]; ATCC 25923): 1000 µg/mL

Molecule: PAWRKAFRWAIRMLKKAA [LFB 14-31A2,6,10,17F7I11K16L14R4]
Mic E-coli [2]: 2/5

Molecule: PAWRKAFRWAWRMLKKAA-OH [LFB 14-31 A2,6,10,17 F7K16L14R4]
Mic E-coli [2]: 2/4

Molecule: CSCC[C@H](NC(=O)[C@H](CCCCN)NC(=O)[C@H](CCCCN)NC(=O)[C@H](CC(C)C)NC(=O)CNC(=O)[C@H](C)N)C(=O)N[C@@H](CCCNC(=N)N)C(=O)N[C@@H](Cc1c[nH]c2ccccc12)C(=O)N[C@@H](CCC(N)=O)C(=O)N[C@@H](Cc1c[nH]c2ccccc12)C(=O)N[C@@H](CCCNC(=N)N)C(=O)N[C@@H](CCCNC(=N)N)C(=O)N[C@@H](CSCNC(C)=O)C(=O)N[C@@H](CCCCN)C(=O)N[C@@H](Cc1ccccc1)C(=O)O [Retro LFB 17-31]
% Hemolysis [1]: 2.01%

Molecule: CSCC[C@H](NC(=O)[C@H](CCCNC(=N)N)NC(=O)[C@H](Cc1c[nH]c2ccccc12)NC(=O)[C@H](CCC(N)=O)NC(=O)[C@H](Cc1c[nH]c2ccccc12)NC(=O)[C@H](CCCNC(=N)N)NC(=O)[C@H](Cc1ccccc1)NC(=O)[C@H](CSCNC(C)=O)NC(=O)[C@H](CCCCN)NC(=O)[C@@H](N)CCCCN)C(=O)N[C@@H](CCCCN)C(=O)N[C@@H](CCCCN)C(=O)N[C@@H](CC(C)C)C(=O)NCC(=O)N[C@@H](C)C(=O)O [LFB F4K1] (H-KKC(Acm)FRWQWRMKKLGA-OH; N-terminus assumed)
MIC E. coli ([2]; ATCC 25922): 20 µg/mL
Minimum inhibitory concentration (MIC) E. coli ATCC 25922 ([2]; Table 1, value in parentheses): 10 µM
MIC S. aureus ([3]; ATCC 25923): 200 µg/mL
Minimum inhibitory concentration (MIC) S. aureus ATCC 25923 ([3]; Table 1, value in parentheses): 100 µM

Molecule: PAWRKARRWARRMKKLAA-OH [LFB 14-31 A2,6,10,17R4,11]
EC 50 (toxicity, hemolysis) [1]: >1000 µg/mL

Molecule: YRMWRWAWRWR-NH2 [LFB 17-27 A7 M3 R2,11 W4,10 Y1 NH2]
MIC E. coli ([2]; ATCC 25922): 5.7 µM
MIC E. coli ([2]; Table 15): 10.0 µg/mL

Molecule: FKARRWAWRMKKLGA-OH [LFB A3, 7]
EC 50 (toxicity, hemolysis) [1]: >1000 µg/mL

Molecule: YRWARWWRR-NH2 [LFM 17-25 A4R2,8,9W3,7Y1NH2]
EC50 [1]: > 697 µM
EC 50 (toxicity, hemolysis) [1]: >1000 µg/mL
MIC E. coli ([2]; ATCC 25922): 7.0 µM
MIC E. coli ([2]; Table 12): 10 µg/mL
MIC E. coli ([2]; Table 15): 10.0 µg/mL
